The source of these data is the supplement of paper PMC11061612.

Holding throughout (assay): Bliss excess, mean over the matrix (fraction); higher = more synergy
One test has as its system CAL-78 (Chondrosarcoma). In outline:
(§1)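 Cell lines grown in DMEM/F12 or RPMI with 10% FBS were plated in 1536-well plates and held 24 hours at 37°C, 5% CO2 before 72 hours of exposure to two-drug dose matrices, with DMSO typically at 0.2%. CellTiter-Glo 2.0 luminescence gave viability, which was converted to inhibition. Vehicle wells were set to 0 and blank wells to 1. Combination Emax is the second-highest inhibition in the matrix, and Bliss excess is the observed combination effect minus the expected EA + EB − EA·EB, where EA and EB are the single-agent effects.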

In test [1] the test system is SUIT-2 (Pancreatic Carcinoma). In outline:
as §1

Test [2] has as its system MFH-ino (Other Solid Carcinomas). The method in brief:
as §1

For test [3], the system named is NCI-H1781 (Lung Adenocarcinoma). The method in brief:
as §1

The test system of test [4] is NCI-H1299 (Non-Small Cell Lung Carcinoma). In outline: as §1
Test [5] deals with SW1783 (Low Grade Glioma). In outline:
as §1

Test [6] concerns KATOIII (Gastric Carcinoma). In outline:
as §1

Test [7] deals with KARPAS-1106P (B-Cell Non-Hodgkin's Lymphoma). In outline:
as §1

A further test deals with J82 (Bladder Carcinoma). In outline: as §1
The subject of test [8] is HT-29 (Colorectal Carcinoma). The method in brief:
as §1

In test [9] the test system is C3A (Hepatocellular Carcinoma). In outline: as §1
Test [10] deals with DMS-273 (Small Cell Lung Carcinoma). In outline: as §1
The subject of test [11] is SW756 (Cervical Carcinoma). The method in brief: as §1
The test system of a further test is IGR-1 (Melanoma). The method in brief: as §1
Test [12] relates to EM-2 (Chronic Myelogenous Leukemia). The method in brief:
as §1

Test [13] concerns TGBC24TKB (Biliary Tract Carcinoma). In outline: as §1
Test [14] deals with OCI-AML2 (Acute Myeloid Leukemia). The method in brief:
as §1

The subject of the next test is ES7 (Ewing's Sarcoma). In outline:
as §1

Test [15] has as its system MDA-MB-157 (Breast Carcinoma). In outline: as §1
Test [16] deals with NCI-H1793 (Lung Adenocarcinoma). In outline: as §1

Turning to `CN(CCO)CC[C@H](CSc1ccccc1)Nc1ccc(S(=O)(=O)NC(=O)c2ccc(N3CCC([C@@H](O)c4ccccc4-c4ccc(Cl)cc4)CC3)cc2)cc1S(=O)(=O)C(F)(F)F` [AZD4320] + C[C@@H](Nc1cc(F)cc(F)c1)c1cc(C(=O)N(C)C)cc2c(=O)cc(N3CCOCC3)oc12 [AZD8186] (first compound max 1 µM, 7x7, partner max 3 µM), the Bliss excess was 0.0323 in the test on CAL-78 (Chondrosarcoma); 0.025 in test [1]; -0.0163 in test [2]; 0.0358 in test [3]; 0.0118 in test [4]; -0.0348 in test [5]. Further, the Bliss excess in [6] is -0.0856; in test [7], 0.0758; in the test on J82 (Bladder Carcinoma) it was -0.0061; in [8], 0.0097; in test [9] it was 0.0183; in test [10], 0.0236. The Bliss excess in test [11] was -0.0213; with IGR-1 (Melanoma), 0.0019; in test [12], 0.0055; in test [13], 0.0011; in test [14], 0.0556; with ES7 (Ewing's Sarcoma), 0.136. Further, the Bliss excess came out at 0.0338 in [15] and 0.0516 in test [16].
In the case of `CN(CCO)CC[C@H](CSc1ccccc1)Nc1ccc(S(=O)(=O)NC(=O)c2ccc(N3CCC([C@@H](O)c4ccccc4-c4ccc(Cl)cc4)CC3)cc2)cc1S(=O)(=O)C(F)(F)F` [AZD4320] + CCN(CCO)CCCOc1ccc2c(Nc3cc(CC(=O)Nc4cccc(F)c4)[nH]n3)ncnc2c1 [AZD2811] (first compound max 1 µM, 7x7, partner max 1 µM), the Bliss excess is 0.117 with CAL-78 (Chondrosarcoma); -0.0472 in test [1]; -0.0406 in test [2]; -0.0788 in test [3]; -0.0237 in test [4]; -0.0701 in test [5]. The Bliss excess was -0.0434 in test [6]; 0.0326 in [7]; -0.0304 in the test with J82 (Bladder Carcinoma); -0.0074 in [8]; -0.0487 in test [9]; -0.0732 in [10]. The Bliss excess in [11] was -0.0334; in the test with IGR-1 (Melanoma) it was 0.148; in test [12], -0.0327; in test [13] it was 0.0337; in test [14] it was 0.0189; with ES7 (Ewing's Sarcoma), 0.0493. Besides, the results for the Bliss excess in test [15] and in test [16] were 0.0101 and -0.0421, respectively.
Consider `CN(CCO)CC[C@H](CSc1ccccc1)Nc1ccc(S(=O)(=O)NC(=O)c2ccc(N3CCC([C@@H](O)c4ccccc4-c4ccc(Cl)cc4)CC3)cc2)cc1S(=O)(=O)C(F)(F)F` [AZD4320] + C[C@@H]1COCCN1C2=NC(=NC(=C2)C3(CC3)[S@](=N)(=O)C)C4=C5C=CNC5=NC=C4 [AZD6738] (first compound max 1 µM, 7x7, partner max 10 µM), for which the Bliss excess in the test with CAL-78 (Chondrosarcoma) was 0.0071; in test [1] it was -0.098; in [2], -0.0785; in test [3] it was -0.0005; in test [4] it was -0.016; in test [5] it was -0.106. The Bliss excess in [6] was -0.0397; in test [7] it was -0.0301; in the test on J82 (Bladder Carcinoma), -0.0144; in test [8], -0.0073; in test [9] it was -0.016; in test [10], -0.025. Moreover, the Bliss excess in [11] was -0.0658; in the test with IGR-1 (Melanoma) it was 0.0464; in [12], 0.005; in [13], -0.0245; in test [14], 0.0397; in the test with ES7 (Ewing's Sarcoma), 0.0638. Besides, the Bliss excess in test [15] is -0.0254; in test [16], -0.0272.
As for `CN(C)CCCOc1ccc(-c2ccc3ncc4c(c3c2)n(C2CCOCC2)c(=O)n4C)cn1` [AZD0156] + C[C@@H]1COCCN1C2=NC(=NC(=C2)C3(CC3)[S@](=N)(=O)C)C4=C5C=CNC5=NC=C4 [AZD6738] (first compound max 1 µM, 7x7, partner max 10 µM), the Bliss excess in the test with CAL-78 (Chondrosarcoma) was -0.0694; in [1], 0.0103; in [2], -0.0591; in [3], -0.0229; in [4], 0.0234; in test [5], -0.0435. Also, the Bliss excess in test [6] was -0.0207; in test [7], 0.0462; in the test on J82 (Bladder Carcinoma) it was 0; in test [8], -0.0211; in test [9], 0.0318; in test [10], 0.0084. In addition, the Bliss excess in test [11] was -0.0006; in the test with IGR-1 (Melanoma) it was -0.0032; in test [12], 0.0124; in [13], -0.0165; in [14], -0.051; in the test on ES7 (Ewing's Sarcoma) it was 0.0225. Also, the Bliss excess in test [15] is -0.0103; in [16] it was -0.0268.
